Data as given in patent publication US20260242353A1, “HETEROARYL DERIVATIVES AS DDRs INHIBITORS” (CHIESI FARMACEUTICI S.P.A., priority 2022, published 2026).
Like-named read-outs stand apart in the source and are kept apart here.

Tests used:
DDR1 = biological target: T1, DDR1 (Homo sapiens, UniProt Q08345); test: LanthaScreen Europium Kinase Binding assay, DDR1
T1 construct: purchased Carna Biosciences
Summary of the method: (§1)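 Compounds were incubated 1 h at rt with 5 nM DDR1 plus 20 nM Kinase Tracer 178, or 5 nM DDR2 plus 10 nM tracer, and 2 nM Eu anti-GST antibody in HEPES pH 7.5 buffer. Read-out was the TR-FRET 665/615 nm ratio. IC50 came from a 4-parameter fit and was converted to Ki by Cheng-Prusoff.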

DDR2 = biological target: T2, DDR2 (Homo sapiens, UniProt Q16832); test: LanthaScreen Europium Kinase Binding assay, DDR2
T2 construct: purchased Life Technologies
T2 sequence (Q16832 22-855): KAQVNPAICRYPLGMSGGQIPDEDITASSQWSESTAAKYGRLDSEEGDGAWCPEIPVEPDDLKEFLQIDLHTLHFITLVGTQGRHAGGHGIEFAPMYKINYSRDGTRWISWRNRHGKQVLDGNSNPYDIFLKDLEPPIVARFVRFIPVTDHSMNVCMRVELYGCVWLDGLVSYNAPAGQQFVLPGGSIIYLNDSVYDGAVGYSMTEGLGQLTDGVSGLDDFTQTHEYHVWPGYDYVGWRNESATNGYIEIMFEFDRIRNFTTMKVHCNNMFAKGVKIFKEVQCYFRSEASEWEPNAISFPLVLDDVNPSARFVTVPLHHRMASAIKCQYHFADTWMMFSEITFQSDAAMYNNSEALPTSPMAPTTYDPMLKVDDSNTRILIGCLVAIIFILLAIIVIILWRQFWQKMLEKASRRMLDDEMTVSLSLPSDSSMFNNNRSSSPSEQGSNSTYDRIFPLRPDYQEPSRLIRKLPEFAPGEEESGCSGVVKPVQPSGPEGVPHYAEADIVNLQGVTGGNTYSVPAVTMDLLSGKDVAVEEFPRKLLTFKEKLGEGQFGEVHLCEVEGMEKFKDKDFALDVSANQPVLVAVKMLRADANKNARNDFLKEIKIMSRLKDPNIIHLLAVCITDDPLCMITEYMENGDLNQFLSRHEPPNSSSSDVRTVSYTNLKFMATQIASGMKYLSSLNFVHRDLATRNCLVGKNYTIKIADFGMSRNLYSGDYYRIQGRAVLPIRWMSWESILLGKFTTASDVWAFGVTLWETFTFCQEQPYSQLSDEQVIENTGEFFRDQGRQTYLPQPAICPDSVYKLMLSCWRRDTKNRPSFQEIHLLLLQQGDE
Summary of the method: as §1

[1] = 5 nM DDR1, 20 nM Kinase Tracer 178, 1 h at rt, Ki from IC50 by Cheng-Prusoff, read-out: Ki DDR1
[2] = 5 nM DDR2, 10 nM Kinase Tracer 178, 1 h at rt, Ki from IC50 by Cheng-Prusoff, read-out: Ki DDR2
[3] = same binding assay, 5 nM DDR1, 20 nM Kinase Tracer 178, read-out: DDR1 Ki
[4] = same binding assay, 5 nM DDR2, 10 nM Kinase Tracer 178, read-out: DDR2 Ki

T1 sequence (Q08345 19-913): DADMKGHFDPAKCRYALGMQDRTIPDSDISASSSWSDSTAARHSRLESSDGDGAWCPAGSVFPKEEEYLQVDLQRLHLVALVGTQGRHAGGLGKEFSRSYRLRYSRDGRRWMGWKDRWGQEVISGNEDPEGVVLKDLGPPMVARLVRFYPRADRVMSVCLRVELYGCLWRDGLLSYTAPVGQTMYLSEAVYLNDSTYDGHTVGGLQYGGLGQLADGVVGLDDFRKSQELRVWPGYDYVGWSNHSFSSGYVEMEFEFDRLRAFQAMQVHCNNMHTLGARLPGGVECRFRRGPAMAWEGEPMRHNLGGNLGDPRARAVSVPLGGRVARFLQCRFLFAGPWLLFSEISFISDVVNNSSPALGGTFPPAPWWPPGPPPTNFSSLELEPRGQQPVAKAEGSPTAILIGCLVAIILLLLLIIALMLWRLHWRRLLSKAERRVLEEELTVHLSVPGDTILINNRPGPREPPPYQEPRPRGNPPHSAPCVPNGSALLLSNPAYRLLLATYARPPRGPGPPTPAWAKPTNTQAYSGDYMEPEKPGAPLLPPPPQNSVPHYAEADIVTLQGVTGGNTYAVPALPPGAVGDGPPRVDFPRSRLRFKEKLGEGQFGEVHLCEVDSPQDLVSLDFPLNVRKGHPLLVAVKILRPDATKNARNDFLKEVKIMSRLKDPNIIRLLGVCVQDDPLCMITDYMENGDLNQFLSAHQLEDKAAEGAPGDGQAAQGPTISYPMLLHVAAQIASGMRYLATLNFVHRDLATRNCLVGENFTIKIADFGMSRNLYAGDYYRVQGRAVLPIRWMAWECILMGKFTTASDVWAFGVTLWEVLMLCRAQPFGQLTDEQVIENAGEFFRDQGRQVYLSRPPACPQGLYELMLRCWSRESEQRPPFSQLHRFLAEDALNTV

SMILES: Cc1ccc(C(=O)Nc2cncc(C(F)(F)F)c2)cc1[C@@H]1CCN(c2ncnc3cc(C(=O)N4CCN(C)CC4)sc23)C1 [Example 126, (S)-4-methyl-3-(1-(6-(4-methylpiperazine-1-carbonyl)thieno[3,2-d]pyrimidin-4-yl)pyrrolidin-3-yl)-N-(5-(trifluoromethyl)pyridin-3-yl)benzamide]
- Ki (DDR1; [1]): < 5 nM
- Ki (DDR2; [2]): 5 to 25 nM

SMILES: CNC(=O)c1cc(N2CCC(c3cc(C(=O)Nc4cncc(C(F)(F)F)c4)ccc3OC)C2)ccn1 (centres unmarked) [Example 127, 4-(3-(2-methoxy-5-((5-(trifluoromethyl)pyridin-3-yl)carbamoyl)phenyl)pyrrolidin-1-yl)-N-methylpicolinamide]
- Ki (DDR1; [1]): < 5 nM
- Ki (DDR2; [2]): 5 to 25 nM

SMILES: Cc1ccc(C(=O)Nc2cncc(C(F)(F)F)c2)cc1[C@@H]1CCN(c2nccn3cncc23)C1 [Example 128, (S)-3-(1-(imidazo[1,5-a]pyrazin-8-yl)pyrrolidin-3-yl)-4-methyl-N-(5-(trifluoromethyl)pyridin-3-yl)benzamide]
- Ki (DDR1; [1]): < 5 nM
- Ki (DDR2; [2]): 5 to 25 nM

SMILES: Cc1ccc(C(=O)Nc2cncc(C(F)(F)F)c2)cc1[C@@H]1CCN(c2ncnc3[nH]ncc23)C1 [Example 129, (S)-3-(1-(1H-pyrazolo[3,4-d]pyrimidin-4-yl)pyrrolidin-3-yl)-4-methyl-N-(5-(trifluoromethyl)pyridin-3-yl)benzamide]
- Ki (DDR1; [1]): < 5 nM
- Ki (DDR2; [2]): < 5 nM

SMILES: CC(=O)Nc1ncc(N2CC[C@@H](c3cc(C(=O)Nc4cncc(C(F)(F)F)c4)ccc3C)C2)cn1 [Example 130, (S)-3-(1-(2-acetamidopyrimidin-5-yl)pyrrolidin-3-yl)-4-methyl-N-(5-(trifluoromethyl)pyridin-3-yl)benzamide]
- Ki (DDR1; [1]): < 5 nM
- Ki (DDR2; [2]): 5 to 25 nM

SMILES: Cc1ccc(C(=O)Nc2cc(C(C)(C)C)n(C)n2)cc1[C@@H]1CCN(c2ncnc3ccsc23)C1 [Example 131, (S)-N-(5-(tert-butyl)-1-methyl-1H-pyrazol-3-yl)-4-methyl-3-(1-(thieno[3,2-d]pyrimidin-4-yl)pyrrolidin-3-yl)benzamide]
- Ki (DDR1; [1]): < 5 nM
- Ki (DDR2; [2]): < 5 nM

SMILES: Cc1ccc(C(=O)Nc2cncc(C(F)(F)F)c2)cc1N1CC(Oc2cncc(C(N)=O)c2)C1 [Example 132, 5-((1-(2-methyl-5-((5-(trifluoromethyl)pyridin-3-yl)carbamoyl)phenyl)azetidin-3-yl)oxy)nicotinamide]
- Ki (DDR1; [1]): < 5 nM
- Ki (DDR2; [2]): 5 to 25 nM

SMILES: CC(=O)Nc1cncc(OC2CN(c3cc(C(=O)Nc4cncc(C(F)(F)F)c4)ccc3C)C2)c1 [Example 133, 3-(3-((5-acetamidopyridin-3-yl)oxy)azetidin-1-yl)-4-methyl-N-(5-(trifluoromethyl)pyridin-3-yl)benzamide]
- Ki (DDR1; [1]): < 5 nM
- Ki (DDR2; [2]): < 5 nM

SMILES: Cc1ccc(C(=O)Nc2cncc(C(F)(F)F)c2)cc1[C@@H]1CCN(Cc2cnc3ccccn23)C1 [Example C1, (S)-3-(1-(imidazo[1,2-a]pyridin-3-ylmethyl)pyrrolidin-3-yl)-4-methyl-N-(5 (trifluoromethyl)pyridin-3-yl)benzamide]
- Ki (DDR1; [3]): 148 nM
- Ki (DDR2; [4]): 588 nM

SMILES: Cc1ccc(C(=O)Nc2cncc(C(F)(F)F)c2)cc1[C@@H]1CCN(CC(N)=O)C1 [Example C2, (S)-3-(1-(2-amino-2-oxoethyl)pyrrolidin-3-yl)-4-methyl-N-(5-(trifluoromethyl)pyridin-3-yl)benzamide]
- Ki (DDR1; [3]): 487 nM
- Ki (DDR2; [4]): 588 nM
